Results as given in US20110197373A1, “Depilatory Article” (priority 2010, published 2011).

Tested on: unwanted hair on skin
Assay: removal of hair from the skin with the depilatory article / thioglycolate salts
Format: in vivo, human
Settings: thioglycolate salt as keratin reducing agent
Procedure: A second aspect being a method of removing hair from the skin is also provided by the present invention, comprising the steps of: • (a) applying a depilatory article according to the present invention to a surface of skin, preferably human skin, • (b) leaving said depilatory article in contact with the skin for a period of at least 1 minute, preferably 2 to 10 minutes, more preferably 2 to 8 minutes, • (c) removing said depilatory article from the surface of the skin, and • (d) preferably rubbing, scraping, rinsing or wiping the surface of the skin in the area to which the depilatory article was applied. The formulation was disposed to a thickness of 0.3 mm, width of 1.5 cm and length of 3.5 cm on a cast HDPE 85% LLDPE 15% polymer blend film (23 microns in thickness and cut to 4.6 cm in length and 3.2 cm in width) using a stencil and wiper blade, such that the area covered by the formulation was centered along the width of the film and 1 mm away from the perimeter edge of one end of the film's length.

For `O=C([O-])CS.[K+]` [potassium thioglycolate], the “effectiveness at removing hair from the skin” value was “effective at removing hair from the skin, even at low doses”.
